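Values below derive from 48-hour exposures of cells grown in 96-well plates, with endpoints linearly interpolated between the two concentrations bracketing the appropriate inhibition level. GI50 marks 50% less growth.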 The source made the active and inactive calls. No stated cut-off is given here; in the data, active = GI50 up to about 1.1 µM and inactive = higher.
Legend:
Test in all cases: inhibition of tumour cell growth, NCI panel, 48 h
COLO 205 = test system: COLO 205
DMS-273 = test system: DMS-273
HL-60 = test system: HL-60
HOP-18 = test system: HOP-18
HOP-62 = test system: HOP-62
HT-29 = test system: HT-29
MOLT-4 = test system: MOLT-4
OVCAR-3 = test system: OVCAR-3
OVCAR-8 = test system: OVCAR-8
SK-MEL-28 = test system: SK-MEL-28
SNB-78 = test system: SNB-78
SW-620 = test system: SW-620
XF498 = test system: XF498
LXFL 529 = test system: LXFL 529
SR = test system: SR
BT-549 = test system: BT-549
MDA-MB-231 = test system: MDA-MB-231
MDA-MB-435 = test system: MDA-MB-435
PC-3 = test system: PC-3
T47D = test system: T47D

Structure (SMILES) | GI50 (COLO 205) | GI50 (DMS-273) | GI50 (HL-60) | GI50 (HOP-18) | GI50 (HOP-62) | GI50 (HT-29) | GI50 (MOLT-4) | GI50 (OVCAR-3) | GI50 (OVCAR-8) | GI50 (SK-MEL-28) | GI50 (SNB-78) | GI50 (SW-620) | GI50 (XF498) | GI50 (LXFL 529) | GI50 (SR) | GI50 (BT-549) | GI50 (MDA-MB-231) | GI50 (MDA-MB-435) | GI50 (PC-3) | GI50 (T47D)
C#CCNC(=O)CCC(N)C(=O)O (stereo not given) | > 100 µM (inactive) | > 100 µM (inactive) | > 100 µM (inactive) | > 100 µM (inactive) | > 100 µM (inactive) | > 100 µM (inactive) | > 100 µM (inactive) | > 100 µM (inactive) | > 100 µM (inactive) | > 100 µM (inactive) | > 100 µM (inactive) | > 100 µM (inactive) | > 100 µM (inactive) | – | – | – | – | – | – | –
COc1c2c(c3ccccc3c1O)C1C=CC2C1 (stereo not given) | 16.1 µM (inactive) | 15.7 µM (inactive) | > 10 µM (inactive) | 15.1 µM (inactive) | 16.1 µM (inactive) | 19.7 µM (inactive) | 13.2 µM (inactive) | 14.5 µM (inactive) | 13.7 µM (inactive) | 23.3 µM (inactive) | – | 14.2 µM (inactive) | 14.7 µM (inactive) | 3.82 µM (inactive) | 21 µM (inactive) | – | – | – | – | –
C[C@H](N)C(=O)N[C@@H]1[C@H]2C(=C(O)C[C@@H](O)[C@@H]2O)C(=O)O[C@@H]1C | > 100 µM (inactive) | > 100 µM (inactive) | > 80.4 µM (inactive) | 76.9 µM (inactive) | > 100 µM (inactive) | > 100 µM (inactive) | > 100 µM (inactive) | > 100 µM (inactive) | > 100 µM (inactive) | > 100 µM (inactive) | – | > 100 µM (inactive) | > 82 µM (inactive) | – | – | – | – | – | – | –
CCS/C(=N\c1ccccc1)SC | > 100 µM (inactive) | > 100 µM (inactive) | > 100 µM (inactive) | > 100 µM (inactive) | > 100 µM (inactive) | > 100 µM (inactive) | > 100 µM (inactive) | > 100 µM (inactive) | > 100 µM (inactive) | > 100 µM (inactive) | > 100 µM (inactive) | > 100 µM (inactive) | > 100 µM (inactive) | > 100 µM (inactive) | – | – | – | – | – | –
CN(C)c1nc(N(C)C)sc(=O)n1 | – | > 100 µM (inactive) | > 100 µM (inactive) | > 100 µM (inactive) | > 100 µM (inactive) | > 100 µM (inactive) | > 100 µM (inactive) | – | > 100 µM (inactive) | > 100 µM (inactive) | – | > 100 µM (inactive) | > 100 µM (inactive) | > 100 µM (inactive) | > 100 µM (inactive) | – | – | – | – | –
COC1=C(C)C(=O)C2=C(C1=O)[C@@H]1[C@@H]3Cc4c(OC(=O)CO)c(C)c(OC)c(O)c4[C@H](CNC(=O)C(C)=O)N3[C@@H](C#N)[C@H](C2)N1C | < 0.0155 µM (active) | 0.0189 µM (active) | < 0.0135 µM (active) | 0.0382 µM (active) | 0.221 µM (active) | 0.0182 µM (active) | 0.0286 µM (active) | < 0.0153 µM (active) | 0.024 µM (active) | 0.0713 µM (active) | < 0.013 µM (active) | < 0.0164 µM (active) | < 0.01 µM (active) | – | – | – | – | – | – | –
Cc1cc(O)nc(NN2C(Cl)C(=O)C2c2ccco2)n1 (stereo not given) | 78.2 µM (inactive) | 33.7 µM (inactive) | 15.3 µM (inactive) | 21.1 µM (inactive) | 32.6 µM (inactive) | 34 µM (inactive) | 21.8 µM (inactive) | 15.2 µM (inactive) | 46.5 µM (inactive) | > 10 µM (inactive) | 25.7 µM (inactive) | 64.9 µM (inactive) | – | 29.3 µM (inactive) | 28.4 µM (inactive) | – | – | – | – | –
CC[N+]1(C)CCC(O)(c2ccccc2)C(C(=O)c2ccccc2)C1 (stereo not given) | 9.38 µM (inactive) | 21.4 µM (inactive) | 4.27 µM (inactive) | 13.7 µM (inactive) | 22 µM (inactive) | 12.5 µM (inactive) | 3.04 µM (inactive) | 19.3 µM (inactive) | 25.8 µM (inactive) | 15.2 µM (inactive) | – | 2.12 µM (inactive) | – | 10 µM (inactive) | 5.43 µM (inactive) | 9.02 µM (inactive) | 17.2 µM (inactive) | 17.9 µM (inactive) | 17.9 µM (inactive) | 16.9 µM (inactive)
O=C(O)c1c[nH]c2c(=O)[nH]cnc12 | > 100 µM (inactive) | – | > 100 µM (inactive) | > 100 µM (inactive) | > 100 µM (inactive) | > 100 µM (inactive) | > 100 µM (inactive) | > 100 µM (inactive) | > 100 µM (inactive) | > 100 µM (inactive) | > 100 µM (inactive) | > 100 µM (inactive) | – | > 100 µM (inactive) | > 100 µM (inactive) | – | – | – | – | –
CC1CC2C3CCC4=CC(=O)C=CC4(C)C3(F)C(O)CC2(C)C1(O)C(=O)COP(=O)(O)O (stereo not given) | > 100 µM (inactive) | > 100 µM (inactive) | > 100 µM (inactive) | > 100 µM (inactive) | > 100 µM (inactive) | > 100 µM (inactive) | > 62.7 µM (inactive) | > 100 µM (inactive) | > 100 µM (inactive) | > 100 µM (inactive) | > 100 µM (inactive) | > 100 µM (inactive) | > 100 µM (inactive) | > 100 µM (inactive) | 46.6 µM (inactive) | > 100 µM (inactive) | > 100 µM (inactive) | > 100 µM (inactive) | > 100 µM (inactive) | > 100 µM (inactive)
COC1=CC(C2c3cc4c(cc3[C@@H](Nc3ccc([N+](=O)[O-])cc3)C3COC(=O)[C@H]23)OCO4)=CC(=O)C1=O (stereo not given in full) | 21.4 µM (inactive) | 0.697 µM (active) | 0.982 µM (active) | 53.6 µM (inactive) | 0.646 µM (active) | 7.21 µM (inactive) | 0.217 µM (active) | 14.2 µM (inactive) | 4.25 µM (inactive) | 14.8 µM (inactive) | 28 µM (inactive) | 5.31 µM (inactive) | 5.5 µM (inactive) | 16.4 µM (inactive) | 0.179 µM (active) | – | – | – | – | –
Nc1ccn(C2OC(CO)C(O)C2O)c(=O)c1 (stereo not given) | 164 µM (inactive) | 165 µM (inactive) | 239 µM (inactive) | 295 µM (inactive) | 136 µM (inactive) | 270 µM (inactive) | – | > 625 µM (inactive) | 137 µM (inactive) | > 625 µM (inactive) | > 625 µM (inactive) | 610 µM (inactive) | < 0.0625 µM (active) | – | – | – | – | – | – | –

— ChEMBL document CHEMBL1201862, “PubChem BioAssay data set” (2004)
